According to patent US11572369B2, “Bicyclic pyridine compositions and methods of using the same for cancer therapy” (UNIVERSITY OF SOUTH CAROLINA, priority 2019, dated 2023):

How the values were obtained:
Assay in all cases: KINOMEscan
Assay type in all cases: binding
Details in all cases: 2000 nM
ACVR2A = target: T1, ACVR2A (Homo sapiens, UniProt P27037)
T1 construct: purchased DiscoveRx (KINOMEscan scanMAX panel, service)

ADCK3 = target: T2, ADCK3 (Homo sapiens, UniProt Q8NI60)
T2 construct: purchased DiscoveRx (KINOMEscan scanMAX panel, service)
T2 sequence (Q8NI60 163-647): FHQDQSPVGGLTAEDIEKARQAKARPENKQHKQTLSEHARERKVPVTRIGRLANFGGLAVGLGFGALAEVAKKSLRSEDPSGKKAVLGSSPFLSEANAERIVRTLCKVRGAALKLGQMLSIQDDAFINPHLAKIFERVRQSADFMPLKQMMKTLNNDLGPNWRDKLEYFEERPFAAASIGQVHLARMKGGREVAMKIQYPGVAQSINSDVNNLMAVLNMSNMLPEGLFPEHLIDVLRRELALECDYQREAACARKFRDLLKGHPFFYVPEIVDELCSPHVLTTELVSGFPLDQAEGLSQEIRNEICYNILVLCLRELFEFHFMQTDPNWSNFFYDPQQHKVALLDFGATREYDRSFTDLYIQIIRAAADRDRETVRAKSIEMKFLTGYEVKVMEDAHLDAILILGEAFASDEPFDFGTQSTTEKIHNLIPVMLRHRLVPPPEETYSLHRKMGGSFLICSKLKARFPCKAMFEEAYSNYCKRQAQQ

CAMK2D = target: T3, CAMK2D (Homo sapiens, UniProt Q13557)
T3 construct: DNA label (qPCR read-out); purchased KINOMEscan (ScanMAX panel service)

CDKL5 = target: T4, CDKL5 (Homo sapiens, UniProt O76039)
T4 construct: DNA label (for qPCR read-out); purchased DiscoveRx (KINOMEscan scanMAX service)

EPHA1 = target: T5, EPHA1 (Homo sapiens, UniProt P21709)
T5 construct: purchased DiscoveRx (KINOMEscan scanMAX panel)

ERBB3 = target: T6, ERBB3 (Homo sapiens, UniProt P21860)
T6 construct: DNA label (qPCR read-out); purchased DiscoveRx (KINOMEscan ScanMAX panel)
T6 sequence (P21860 20-1342): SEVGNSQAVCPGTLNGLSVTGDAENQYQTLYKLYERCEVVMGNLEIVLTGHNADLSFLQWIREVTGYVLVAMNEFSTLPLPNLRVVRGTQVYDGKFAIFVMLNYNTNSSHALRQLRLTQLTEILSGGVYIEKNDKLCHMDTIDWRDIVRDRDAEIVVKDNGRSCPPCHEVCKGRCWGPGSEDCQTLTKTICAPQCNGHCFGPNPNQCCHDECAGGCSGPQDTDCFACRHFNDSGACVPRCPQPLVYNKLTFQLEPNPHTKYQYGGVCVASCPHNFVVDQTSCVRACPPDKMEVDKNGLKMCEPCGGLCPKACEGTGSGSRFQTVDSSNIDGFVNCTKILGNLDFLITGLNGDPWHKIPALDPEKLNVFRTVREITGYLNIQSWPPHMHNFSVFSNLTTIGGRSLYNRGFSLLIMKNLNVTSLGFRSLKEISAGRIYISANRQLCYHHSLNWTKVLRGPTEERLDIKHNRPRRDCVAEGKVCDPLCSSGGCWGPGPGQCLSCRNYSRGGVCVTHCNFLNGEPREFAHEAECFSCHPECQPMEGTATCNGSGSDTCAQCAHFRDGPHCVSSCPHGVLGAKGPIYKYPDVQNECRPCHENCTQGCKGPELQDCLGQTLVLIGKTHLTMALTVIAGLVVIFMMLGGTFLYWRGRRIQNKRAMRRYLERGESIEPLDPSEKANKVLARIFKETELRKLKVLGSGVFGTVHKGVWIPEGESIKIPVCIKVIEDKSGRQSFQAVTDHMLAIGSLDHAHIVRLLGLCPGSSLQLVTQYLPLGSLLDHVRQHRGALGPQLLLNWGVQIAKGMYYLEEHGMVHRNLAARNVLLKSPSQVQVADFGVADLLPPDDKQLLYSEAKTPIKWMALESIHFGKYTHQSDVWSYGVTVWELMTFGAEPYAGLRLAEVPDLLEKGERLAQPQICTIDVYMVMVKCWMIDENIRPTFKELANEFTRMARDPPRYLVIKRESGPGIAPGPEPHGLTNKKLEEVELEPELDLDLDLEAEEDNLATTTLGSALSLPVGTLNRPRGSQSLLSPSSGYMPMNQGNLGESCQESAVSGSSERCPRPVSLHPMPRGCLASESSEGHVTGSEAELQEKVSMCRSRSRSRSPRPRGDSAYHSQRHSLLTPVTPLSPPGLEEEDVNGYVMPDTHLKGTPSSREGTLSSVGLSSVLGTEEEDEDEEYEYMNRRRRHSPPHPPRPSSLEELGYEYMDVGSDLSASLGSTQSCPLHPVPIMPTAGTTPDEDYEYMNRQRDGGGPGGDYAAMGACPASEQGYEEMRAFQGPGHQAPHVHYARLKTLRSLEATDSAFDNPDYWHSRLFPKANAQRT

FGFR2 = target: T7, FGFR2 (Homo sapiens, UniProt P21802)
T7 construct: purchased DiscoveRx (KINOMEscan scanMAX panel)

FGFR3 = target: T8, FGFR3 (Homo sapiens, UniProt P22607)
T8 construct: purchased DiscoveRx (KINOMEscan scanMAX panel)
T8 sequence (P22607 23-806): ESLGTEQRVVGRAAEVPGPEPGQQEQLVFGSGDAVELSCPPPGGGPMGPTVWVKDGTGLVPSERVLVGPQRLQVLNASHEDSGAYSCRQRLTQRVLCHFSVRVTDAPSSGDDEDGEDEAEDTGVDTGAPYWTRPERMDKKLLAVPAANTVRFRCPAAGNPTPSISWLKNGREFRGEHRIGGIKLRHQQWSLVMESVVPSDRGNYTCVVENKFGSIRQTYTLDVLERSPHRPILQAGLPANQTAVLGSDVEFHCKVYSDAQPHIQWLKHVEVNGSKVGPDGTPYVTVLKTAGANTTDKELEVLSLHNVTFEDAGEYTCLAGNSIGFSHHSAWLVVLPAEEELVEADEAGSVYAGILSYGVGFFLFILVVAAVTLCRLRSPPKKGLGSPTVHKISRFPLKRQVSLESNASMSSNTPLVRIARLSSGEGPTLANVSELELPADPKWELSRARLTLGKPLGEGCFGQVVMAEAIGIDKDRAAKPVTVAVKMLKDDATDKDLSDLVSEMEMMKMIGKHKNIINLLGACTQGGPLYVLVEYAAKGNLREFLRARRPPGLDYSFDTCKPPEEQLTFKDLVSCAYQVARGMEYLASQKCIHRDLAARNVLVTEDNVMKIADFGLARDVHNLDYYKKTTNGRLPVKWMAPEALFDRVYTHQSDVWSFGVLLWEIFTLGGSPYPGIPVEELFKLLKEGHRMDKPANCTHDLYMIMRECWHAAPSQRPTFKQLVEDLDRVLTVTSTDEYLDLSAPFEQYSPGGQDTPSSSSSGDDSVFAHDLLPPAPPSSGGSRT

FLT3(R834Q) = target: T9, FLT3(R834Q) (Homo sapiens, UniProt P36888, R834Q)
T9 construct: purchased KINOMEscan (DiscoveRx)

GCN2(Kin.Dom.2, S808G) = target: T10, GCN2(Kin.Dom.2, S808G) (Homo sapiens, UniProt Q9P2K8, S808G)
T10 construct: GCN2(Kin.Dom.2, S808G); purchased KINOMEscan (DiscoveRx)
T10 sequence (Q9P2K8 590-1001 S808G limits assumed): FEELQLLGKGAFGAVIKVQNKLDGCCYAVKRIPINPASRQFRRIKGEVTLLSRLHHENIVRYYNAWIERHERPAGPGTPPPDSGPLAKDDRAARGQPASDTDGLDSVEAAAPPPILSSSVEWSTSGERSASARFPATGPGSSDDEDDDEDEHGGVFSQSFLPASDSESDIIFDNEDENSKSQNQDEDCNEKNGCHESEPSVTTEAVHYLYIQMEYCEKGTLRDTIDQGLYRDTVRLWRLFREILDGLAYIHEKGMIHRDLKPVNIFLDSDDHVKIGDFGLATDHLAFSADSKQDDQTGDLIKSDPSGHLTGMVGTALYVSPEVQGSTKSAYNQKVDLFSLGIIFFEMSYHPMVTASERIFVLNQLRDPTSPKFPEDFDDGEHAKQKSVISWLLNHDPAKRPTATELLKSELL

HCK = target: T11, HCK (Homo sapiens, UniProt P08631)
T11 construct: DNA label (for qPCR read-out); purchased DiscoveRx (KINOMEscan scanMAX panel, contract assay)

HPK1 = target: T12, HPK1 (Homo sapiens, UniProt Q92918)
T12 construct: DNA label (for qPCR read-out); purchased DiscoveRx (KINOMEscan scanMAX panel, contract assay)

HUNK = target: T13, HUNK (Homo sapiens, UniProt P57058)
T13 construct: DNA label (qPCR read-out); purchased KINOMEscan (DiscoveRx) ScanMAX panel

ICK = target: T14, ICK (Homo sapiens, UniProt Q9UPZ9)
T14 construct: DNA label (qPCR read-out); purchased KINOMEscan (DiscoveRx) ScanMAX panel

[1] = target: T15, JAK1(JH2domain-pseudokinase) (Homo sapiens, UniProt P23458)
T15 construct: JAK1(JH2domain-pseudokinase); DNA label (for qPCR read-out); purchased DiscoveRx (KINOMEscan scanMAX panel)

LOK = target: T16, LOK (Homo sapiens, UniProt O94804)
T16 construct: purchased KINOMEscan (DiscoveRx) panel service
T16 sequence (O94804 whole entry): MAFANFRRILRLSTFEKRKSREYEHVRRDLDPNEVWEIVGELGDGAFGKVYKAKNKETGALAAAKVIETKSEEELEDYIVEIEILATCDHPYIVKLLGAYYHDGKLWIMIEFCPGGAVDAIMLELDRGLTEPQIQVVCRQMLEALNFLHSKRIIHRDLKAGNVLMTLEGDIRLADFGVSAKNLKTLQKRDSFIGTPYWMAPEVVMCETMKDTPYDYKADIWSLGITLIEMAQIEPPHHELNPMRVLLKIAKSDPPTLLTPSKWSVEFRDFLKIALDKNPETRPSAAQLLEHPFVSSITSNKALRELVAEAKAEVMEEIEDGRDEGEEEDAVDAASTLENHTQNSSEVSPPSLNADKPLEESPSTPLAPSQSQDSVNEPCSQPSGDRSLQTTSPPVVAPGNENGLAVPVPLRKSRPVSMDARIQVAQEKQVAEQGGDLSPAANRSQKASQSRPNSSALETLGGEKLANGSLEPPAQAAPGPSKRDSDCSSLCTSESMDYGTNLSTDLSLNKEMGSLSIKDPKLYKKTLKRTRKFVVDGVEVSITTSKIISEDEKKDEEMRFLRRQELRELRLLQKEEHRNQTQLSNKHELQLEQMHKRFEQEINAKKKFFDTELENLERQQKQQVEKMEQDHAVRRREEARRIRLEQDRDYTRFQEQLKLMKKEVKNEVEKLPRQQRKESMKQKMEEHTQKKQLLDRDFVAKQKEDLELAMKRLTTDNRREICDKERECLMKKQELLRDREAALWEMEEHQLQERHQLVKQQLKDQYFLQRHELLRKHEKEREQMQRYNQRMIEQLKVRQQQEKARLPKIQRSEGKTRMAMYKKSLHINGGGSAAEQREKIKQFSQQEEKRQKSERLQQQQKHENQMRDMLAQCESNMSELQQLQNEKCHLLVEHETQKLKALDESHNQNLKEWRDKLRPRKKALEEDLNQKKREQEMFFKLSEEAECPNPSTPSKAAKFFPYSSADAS

MAP3K2 = MAP3K2 (Homo sapiens, UniProt Q9Y2U5)
MAP4K2 = MAP4K2 (Homo sapiens, UniProt Q12851)
MYLK2 = target: T17, MYLK2 (Homo sapiens, UniProt Q9H1R3)
T17 construct: DNA label (for qPCR read-out); purchased KINOMEscan scanMAX panel (DiscoveRx)

MYO3A = target: T18, MYO3A (Homo sapiens, UniProt Q8NEV4)
T18 construct: DNA label (for qPCR read-out); purchased KINOMEscan scanMAX panel (DiscoveRx)

NEK11 = target: T19, NEK11 (Homo sapiens, UniProt Q8NG66)
T19 construct: DNA label (qPCR read-out); purchased KINOMEscan (ScanMAX panel service)

PCTK1 = target: T20, PCTK1 (Homo sapiens, UniProt Q00536)
T20 construct: purchased DiscoverX (KINOMEscan service)

PIK3C2B = target: T21, PIK3C2B (Homo sapiens, UniProt O00750)
T21 construct: DNA label (for qPCR read-out); purchased DiscoveRx (KINOMEscan scanMAX service)

PIK3CA(C420R) = target: T22, PIK3CA(C420R) (Homo sapiens, UniProt P42336, C420R)
T22 construct: DNA label; purchased DiscoveRx (KINOMEscan scanMAX panel)
T22 sequence (P42336 whole entry C420R): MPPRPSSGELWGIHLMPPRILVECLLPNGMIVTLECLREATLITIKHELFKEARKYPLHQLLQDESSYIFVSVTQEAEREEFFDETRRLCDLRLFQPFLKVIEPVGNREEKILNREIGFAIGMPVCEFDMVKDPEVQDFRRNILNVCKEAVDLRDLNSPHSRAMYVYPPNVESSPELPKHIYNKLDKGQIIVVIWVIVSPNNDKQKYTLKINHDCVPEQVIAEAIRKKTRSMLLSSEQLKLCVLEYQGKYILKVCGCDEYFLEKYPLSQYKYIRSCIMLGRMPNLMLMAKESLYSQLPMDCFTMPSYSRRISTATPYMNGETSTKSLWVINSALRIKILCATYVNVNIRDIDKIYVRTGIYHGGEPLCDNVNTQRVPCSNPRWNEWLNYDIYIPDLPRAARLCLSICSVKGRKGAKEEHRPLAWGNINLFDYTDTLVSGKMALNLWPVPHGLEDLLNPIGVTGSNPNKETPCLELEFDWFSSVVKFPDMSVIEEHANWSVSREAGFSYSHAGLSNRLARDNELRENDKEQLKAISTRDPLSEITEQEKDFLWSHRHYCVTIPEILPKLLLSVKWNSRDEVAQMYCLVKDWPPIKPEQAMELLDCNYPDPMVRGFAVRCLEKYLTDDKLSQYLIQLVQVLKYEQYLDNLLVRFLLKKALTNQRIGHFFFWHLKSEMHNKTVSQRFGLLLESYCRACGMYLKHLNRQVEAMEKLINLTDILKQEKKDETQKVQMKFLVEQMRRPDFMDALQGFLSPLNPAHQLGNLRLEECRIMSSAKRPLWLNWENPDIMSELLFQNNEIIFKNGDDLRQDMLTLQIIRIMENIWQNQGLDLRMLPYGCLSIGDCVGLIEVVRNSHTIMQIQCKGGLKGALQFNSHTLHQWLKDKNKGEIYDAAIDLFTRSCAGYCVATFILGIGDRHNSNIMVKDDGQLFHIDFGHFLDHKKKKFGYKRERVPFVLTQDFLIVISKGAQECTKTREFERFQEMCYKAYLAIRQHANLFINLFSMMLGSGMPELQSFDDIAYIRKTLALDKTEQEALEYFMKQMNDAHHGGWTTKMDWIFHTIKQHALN

PIK3CA(H1047L) = target: T23, PIK3CA(H1047L) (Homo sapiens, UniProt P42336, H1047L)
T23 construct: DNA label; purchased DiscoveRx (KINOMEscan scanMAX panel)

PIK3CA(M1043I) = target: T24, PIK3CA(M1043I) (Homo sapiens, UniProt P42336, M1043I)
T24 construct: DNA label; purchased DiscoveRx (KINOMEscan scanMAX panel)
T24 sequence (P42336 whole entry M1043I): as the sequence (P42336 whole entry C420R) above, with R420C, M1043I counted along it

PKAC-beta = target: T25, PKAC-beta (Homo sapiens, UniProt P22694)
T25 construct: DNA label (qPCR read-out); purchased KINOMEscan (DiscoveRx) panel

PLK1 = target: T26, PLK1 (Homo sapiens, UniProt P53350)
T26 construct: purchased DiscoveRx (KINOMEscan scanMAX panel)

PLK3 = target: T27, PLK3 (Homo sapiens, UniProt Q9H4B4)
T27 construct: purchased DiscoveRx (KINOMEscan scanMAX panel)

PRKCH = target: T28, PRKCH (Homo sapiens, UniProt P24723)
T28 construct: purchased DiscoveRx (KINOMEscan scanMAX panel)

PFCDPK1(P.falciparum) = target: T29, PFCDPK1(P.falciparum) (Plasmodium falciparum, UniProt P62344)
T29 construct: DNA label (for qPCR read-out); purchased DiscoveRx (KINOMEscan scanMAX service)
From the text: Nat. Biotechnol. 23, 329-336 (2005).
Percent Control (% Ctrl).

RET(V804M) = target: T30, RET(V804M) (Homo sapiens, UniProt P07949, V804M)
T30 construct: purchased DiscoveRx (KINOMEscan scanMAX panel)

[2] = target: T31, TYK2(JH1domain-catalytic) (Homo sapiens, UniProt P29597)
T31 construct: JH1domain; DNA label (for qPCR read-out); purchased DiscoveRx (KINOMEscan scanMAX panel)

YES = target: T32, YES (Homo sapiens, UniProt P07947)
T32 construct: purchased KINOMEscan (DiscoveRx) panel service

SMILES | % Ctrl (ACVR2A) [% Ctrl] | % Ctrl (ADCK3) [% Ctrl] | % Ctrl (CAMK2D) [% Ctrl] | % Ctrl (CDKL5) [% Ctrl] | % Ctrl (EPHA1) [% Ctrl] | % Ctrl (ERBB3) [% Ctrl] | % Ctrl (FGFR2) [% Ctrl] | % Ctrl (FGFR3) [% Ctrl] | % Ctrl (FLT3(R834Q)) [% Ctrl] | % Ctrl (GCN2(Kin.Dom.2, S808G)) [% Ctrl] | % Ctrl (HCK) [% Ctrl] | % Ctrl (HPK1) [% Ctrl] | % Ctrl (HUNK) [% Ctrl] | % Ctrl (ICK) [% Ctrl] | % Ctrl [1] [% Ctrl] | % Ctrl (LOK) [% Ctrl] | % Ctrl (MAP3K2) [% Ctrl] | % Ctrl (MAP4K2) [% Ctrl] | % Ctrl (MYLK2) [% Ctrl] | % Ctrl (MYO3A) [% Ctrl] | further results
CN(C)C(=O)c1ccc(N2CCCN(c3ccnc4sc(C(N)=O)c(N)c34)CC2)cc1 [15u, 3-amino-4-(4-(4-(dimethylcarbamoyl)phenyl)-1,4-diazepan-1-yl)thieno[2,3-b]pyridine-2-carboxamide] | 95 | 90 | 99 | 100 | 92 | 100 | 99 | 98 | 100 | 73 | 96 | 98 | 99 | 84 | 89 | 84 | 98 | 84 | 100 | 100 | % Ctrl (NEK11): 90 % Ctrl; % Ctrl (PCTK1): 92 % Ctrl; % Ctrl (PIK3C2B): 89 % Ctrl; % Ctrl (PIK3CA(C420R)): 100 % Ctrl; % Ctrl (PIK3CA(H1047L)): 94 % Ctrl; % Ctrl (PIK3CA(M1043I)): 96 % Ctrl; % Ctrl (PKAC-beta): 83 % Ctrl; % Ctrl (PLK1): 95 % Ctrl; % Ctrl (PLK3): 86 % Ctrl; % Ctrl (PRKCH): 80 % Ctrl; % Ctrl (PFCDPK1(P.falciparum)): 94 % Ctrl; % Ctrl (RET(V804M)): 100 % Ctrl; % Ctrl [2]: 95 % Ctrl; % Ctrl (YES): 99 % Ctrl
[2H]C([2H])([2H])N(C(=O)c1ccc(N2CCCN(c3ccnc4sc(C(N)=O)c(N)c34)CC2)cc1)C([2H])([2H])[2H] [15u_D6, 3-amino-4-(4-(4-(bis(methyl-d3)carbamoyl)phenyl)-1,4-diazepan-1-yl)thieno[2,3-b]pyridine-2-carboxamide] | 92 | 100 | 92 | 84 | 95 | 88 | 98 | 99 | 68 | 88 | 96 | 100 | 100 | 66 | 89 | 69 | 86 | 66 | 100 | 100 | % Ctrl (NEK11): 86 % Ctrl; % Ctrl (PCTK1): 64 % Ctrl; % Ctrl (PIK3C2B): 87 % Ctrl; % Ctrl (PIK3CA(C420R)): 86 % Ctrl; % Ctrl (PIK3CA(H1047L)): 80 % Ctrl; % Ctrl (PIK3CA(M1043I)): 95 % Ctrl; % Ctrl (PKAC-beta): 100 % Ctrl; % Ctrl (PLK1): 89 % Ctrl; % Ctrl (PLK3): 90 % Ctrl; % Ctrl (PRKCH): 96 % Ctrl; % Ctrl (PFCDPK1(P.falciparum)): 61 % Ctrl; % Ctrl (RET(V804M)): 100 % Ctrl; % Ctrl [2]: 82 % Ctrl; % Ctrl (YES): 100 % Ctrl
